Source: US10542989B2, “Synergistic dietary supplement compositions for enhancing physical performance and energy levels” (LAILA NUTRACEUTICALS, priority 2015, dated 2020)

Experiments:
[1] = tested on: Swiss albino mice; test: Energy and endurance forced swim test (FST) with constant load; format: in vivo; conditions: for Activity during forced swimming compared to control group (in words): 10 minutes of forced swimming, day 21; for Average Velocity / Distance Travelled (mm) / Fast Swimming Time / Resting Time / Slow Swimming: oral, 21 days, 150 mg/kg (Caffeine 10 mg/kg), 10 min swim on day 21, Mean ± SEM
Description: The efficacy of the compositions LI12522F2, LI89032F3 and LI80020F3 for enhancing energy and endurance was further evaluated in an animal study. […] On day 21, one hour after the treatment the mice were forced to swim with a constant load (10% of its body weight attached to its tail) in an acrylic cylinder filled with water. This test was monitored for 10 minutes using the SMART video tracking system ([…]). Various swimming parameters were recorded and analyzed by smart software. […] Swiss albino mice were acclimatized for 5 days before initiation of the study. Healthy Swiss albino mice were selected and randomly divided (n=6) into different treatment groups. […] On day 21, one hour after the treatment the mice were forced to swim with a constant load (10% of its body weight attached to its tail) in an acrylic cylinder filled with water. This test was monitored for 10 minutes using the SMART video tracking system ([…]). Various swimming parameters were recorded and analyzed by smart software. Measured Swimming parameters include, resting time, slow moving time, fast moving time, total moving time, path length of swimming and average velocity.

[2] = tested on: Swiss albino mice; test: Grip strength measurement (grip strength meter); format: in vivo; conditions: oral, 150 mg/kg (Caffeine 10 mg/kg), Mean ± SEM
Description: Similarly, after 21 days of treatment, the grip strength of mice was measured by using Grip strength meter (UgoBasile, Italy). Animals were trained and habituated to the experimental environment and conditions for 5 days. Each mice was allowed to grasp the grasping bar and it was pulled back gently in a horizontal plane by tail with gradually increasing force till the pulling force overcomes the grip strength of the animal. The force applied at the moment when the mice leaves its grasp on the grasping bar was recorded as grip strength in grams.
After 21 days of treatment Grip strength of mice was measured by using Grip strength meter (UgoBasile, Italy). Animals were trained and habituated to the experimental environment and conditions for 5 days. Each mice was allowed to grasp the grasping bar and it was pulled back gently in a horizontal plane by tail with gradually increasing force till the pulling force overcomes the grip strength of the animal. The force applied at the moment when the mice leaves its grasp on the grasping bar was recorded as grip strength in grams. Three trials were conducted on each animal and average grip strength was calculated.

SMILES: Cn1c(=O)c2c(ncn2C)n(C)c1=O [Caffeine]
- Activity during forced swimming compared to control group (in words) [1]: more active and energetic
- Average Velocity [1]: 49.80
- Distance Travelled (mm) [1]: 28740.25 mm
- Fast Swimming Time [1]: 82.16 s
- Resting Time [1]: 399.64 s
- Slow Swimming [1]: 92.12 s
- Average Grip Strength measured after 21 Days [2]: 56.07 ± 10.37 grams

SMILES: C[N+](C)(C)C[C@H](O)CC(=O)[O-] [L-Carnitine]
- Activity during forced swimming compared to control group (in words) [1]: more active and energetic
- Average Velocity [1]: 44.24
- Distance Travelled (mm) [1]: 26197.58 mm
- Fast Swimming Time [1]: 67.64 s
- Resting Time [1]: 419.52 s
- Slow Swimming [1]: 104.92 s
- Average Grip Strength measured after 21 Days [2]: 39.20 ± 7.51 grams
